Assay: Human HepG2 cell viability assay in 384 well format
Format: toxicity, cell-based
Parameters: dose 125 nL, time 70.5 hour; cytotoxicity at 70.5 h: concentration not given beside the values
Conditions: HepG2 cells, read-out: Inhibition

SMILES	cytotoxicity at 70.5 h [%]
O=C(c1cc2ccccc2s1)N1CCC(C(=O)O)(n2cccn2)CC1	-4.38
Cc1cc(C)n(-c2ccc(C(=O)N3CCCC3c3cnn(C)c3)cc2)n1 (stereo unspecified)	-5.54
CN1CC(=O)N(c2ccccc2)CC12CCN(Cc1cccnc1)C2 (stereo unspecified)	-11.3
O=C1N(c2ccc(F)cc2)Cc2n[nH]c(=O)n21	-2.51
CCOc1cccc(CNC(=O)c2cnn(CC)c2C(F)(F)F)c1	-2.57
CC(=O)N1CC[C@@H]2CN(Cc3cccc(Cl)c3)S(=O)(=O)[C@@H]2CC1	-1.91
CCN1CCCC1CNC(=O)Cc1c(C)n[nH]c1-c1ccc(F)cc1 (stereo unspecified)	22.5
COc1ccc(C2CCCN2C(=O)NCCNc2ncccn2)cc1 (stereo unspecified)	-4.74
c1cc(CN2CCC3(CC2)CC(N2CCCC2)CO3)co1 (stereo unspecified)	-5.63
CCc1cnc(N2C[C@H](OCc3csc(C)n3)[C@H]3COC[C@H]32)nc1	2.07
O=C(NCCc1ccccc1)NCC(O)c1cccs1 (stereo unspecified)	-14
Cc1cc(C(=O)N2CCCC(n3cncn3)C2)nn1C (stereo unspecified)	-10.8
COc1c(C2CCCN2C(=O)c2ccc(C#N)c(C)n2)c(C)nn1C (stereo unspecified)	-8.97
CCOC[C@H]1CC[C@H]2[C@H](CCN2S(=O)(=O)Cc2ccccc2)O1	-1.8
CC(=O)NC(C)CC(=O)NCc1cccnc1Oc1ccccc1C (stereo unspecified)	-6.45
CSCCc1ccc(NC(=O)NC(C)Cn2cncn2)cc1 (stereo unspecified)	-2.38
O=C(N[C@H]1CN(C2CCOCC2)C[C@@H]1C1CC1)c1cc(O)no1	-7.33
Cc1cc(CN2C[C@H]3CCC[C@@]3(COCC(=O)N3CCCC3)C2)no1	-4.89
Cc1ccc(CN(C)C(=O)CNC(=O)N2CCc3ccccc3C2)o1	17.9

SMILES	cytotoxicity at 70.5 h [%]
Nc1nc(CN2CCOC(Cn3cncn3)C2)nc2ccccc12 (stereo unspecified)	-3.11
COCc1nccc(C2CCCN(Cc3ccc(SC)cc3)C2)n1 (stereo unspecified)	-3.62
CS(=O)(=O)Cc1ccccc1NCc1cc(Cl)ccc1Cl	3.86
CC(C)N(C)C(=O)C1=NOC2(CCN(C(=O)c3ccncc3)C2)C1 (stereo unspecified)	-8.56
CN1[C@H]2CC[C@@H]1CN(C(=O)c1nnc3n1CCCCC3)CC2	-9.52
CC(C)CNC(=O)c1ccc2c(c1)nc1n2CCN(Cc2ccco2)C1	-0.527
Cc1nn(CCCNC(=O)C2CCN(S(C)(=O)=O)CC2)cc1Br	-4.82
CN(Cc1ccsc1)C(=O)c1cccc(F)c1	-9.63
CC(C)c1noc(-c2ccc(N(C)C3CCOCC3)nc2)n1	10.8
CCn1cnnc1C1CCN(C(=O)C(OC)c2ccccc2)CC1 (stereo unspecified)	-0.299
NC(=O)c1cnc(NCC(=O)NCc2ccco2)c(Cl)c1	-9.01
CN(Cc1ccco1)c1ccc(C(=O)NCCCc2ccccn2)cn1	0.076
CC(C)(C(=O)NCC1CCN(Cc2ccccn2)C1)c1ccccc1 (stereo unspecified)	18.1
Cc1noc(CCCC(=O)NC(C)c2ccccn2)n1 (stereo unspecified)	-0.329
CCCS(=O)(=O)CC(=O)N1CCCC1c1noc(C2CC2)n1 (stereo unspecified)	-17.8
O=C(c1cccnc1)N1CCc2c(COCC3CC3)cncc2C1	-2.77
CC(c1nc(C2CC2)no1)N1CCN(Cc2cccc(C#N)c2)CC1 (stereo unspecified)	-2.01
CCC1=N[C@@]2(CC[C@@H]3CN(CC(=O)N(C)C)C[C@@H]32)C(=O)N1CC1CC1	-13.2
CCNC(=O)NC1CCC(Oc2ccccc2C#N)CC1 (stereo unspecified)	9.88

SMILES	cytotoxicity at 70.5 h [%]
O=C(Nc1ccncc1)NC1CCN(c2ccccc2OC(F)F)C1 (stereo unspecified)	1.15
CC(C)=CCN1C[C@H]2CC[C@@H]1CN(C(=O)CCc1n[nH]c(C)n1)C2	-1.3
CCn1nc2c(cc1=O)CN(CC(=O)Nc1nncs1)CC2	-10.2
CCOC(=O)N1CCC(NC(=O)c2cccc(C3CCCNC3)c2)CC1 (stereo unspecified)	-24.4
CN(Cc1n[nH]c2c1CCC2)C(=O)c1cc(-c2cccn2C)n[nH]1	25.6
CCn1ccnc1CN1CCN(CC(O)CN2CCOCC2)CC1 (stereo unspecified)	-15.7
CNc1cccc(C2CCCN(C(C)=O)C2)n1 (stereo unspecified)	-19.3
CC(C)NC(=O)c1nnn(-c2ccccc2)c1C1CC1	-6.4
c1cc(-c2ccc(CN3CCC4(CCNCC4)CC3)s2)[nH]n1	-2.82
CC(C)NC(=O)Cn1ccc2c(Cl)cccc21	-19
CN1CCOC(CNCc2coc(-c3ccccc3)n2)C1 (stereo unspecified)	-0.149
COCCN(Cc1ccc(C)o1)C(=O)Nc1nnc(C(F)F)s1	-7.33
Cc1cc(N2CCSCC2)ccc1NC(=O)N(CCO)C1CC1	-5.59
COCCCNC(=O)CN(C)Cc1ccc(F)cc1Cl	9.16
COCc1cc(C[C@@H]2CC[C@H](O)[C@@H](CN(C)C)O2)no1	-0.737
O=C(CSc1ccc2c(c1)OCCO2)NS(=O)(=O)C1CCCCC1	0.938
COCCNC(=O)[C@H]1C[C@@H]2CCN(c3ncccn3)C[C@@H]2O1	-4.51
CC(C)N1CCc2c(c(COc3cccnc3)nn2CC2CC2)C1	-2.06
